Data published in PubChem BioAssay AID1963836 (Molecular Pharmacology Branch, DTP, NCI, 2024).

System: 857933-349-R-J2-PDC complex spheroid viability
Experiment: Anticancer human tumor 857933-349-R-J2-PDC patient-derived colon adenocarcinoma cell line growth inhibition [POLQ]
Settings: for IC50: curve of first compound; for viability, T/C: stronger effect = lower value
Procedure, shortened: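 Complex spheroid viability model combining PDC tumour cells with endothelial (HUVEC) and MSC stromal cells. Novobiocin, ART-558 or RP6685 were tested singly and in combination with standard and investigational anticancer drugs. Each was titrated in half-log steps from near clinical Cmax, or from 10 microM where Cmax was unknown.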

[1] = second compound 0.0316 µM, first compound 0.0316 µM
[2] = second compound 0.0316 µM, first compound 0.1 µM
[3] = second compound 0.0316 µM, first compound 0.316 µM
[4] = second compound 0.0316 µM, first compound 1 µM
[5] = second compound 0.0316 µM, first compound 3.16 µM
[6] = second compound 0.0316 µM, first compound 10 µM
[7] = second compound 0.1 µM, first compound 0.0316 µM
[8] = second compound 0.1 µM, first compound 0.1 µM
[9] = second compound 0.1 µM, first compound 0.316 µM
[10] = second compound 0.1 µM, first compound 1 µM
[11] = second compound 0.1 µM, first compound 3.16 µM
[12] = second compound 0.1 µM, first compound 10 µM
[13] = second compound 0.316 µM, first compound 0.0316 µM
[14] = second compound 0.316 µM, first compound 0.1 µM
[15] = second compound 0.316 µM, first compound 0.316 µM
[16] = second compound 0.316 µM, first compound 1 µM
[17] = second compound 0.316 µM, first compound 3.16 µM
[18] = second compound 0.316 µM, first compound 10 µM
[19] = second compound 1 µM, first compound 0.0316 µM
[20] = second compound 1 µM, first compound 0.1 µM
[21] = second compound 1 µM, first compound 0.316 µM
[22] = second compound 1 µM, first compound 1 µM
[23] = second compound 1 µM, first compound 3.16 µM
[24] = second compound 1 µM, first compound 10 µM
[25] = second compound 3.16 µM, first compound 0.0316 µM
[26] = second compound 3.16 µM, first compound 0.1 µM
[27] = second compound 3.16 µM, first compound 0.316 µM
[28] = second compound 3.16 µM, first compound 1 µM
[29] = second compound 3.16 µM, first compound 3.16 µM
[30] = second compound 3.16 µM, first compound 10 µM
[31] = second compound 10 µM, first compound 0.0316 µM
[32] = second compound 10 µM, first compound 0.1 µM
[33] = second compound 10 µM, first compound 0.316 µM
[34] = second compound 10 µM, first compound 1 µM
[35] = second compound 10 µM, first compound 3.16 µM
[36] = second compound 10 µM, first compound 10 µM
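Further: spheroids exposed to compounds for seven days before readout.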

For `C#Cc1c(F)ccc2cc(O)cc(-c3ncc4c(N5CC6CCC(C5)N6)nc(OCC56CCCN5CC(F)C6)nc4c3F)c12` (stereo unspecified) + Nc1ccc(C#CCN(C(=O)Cc2ncc(C(F)(F)F)cc2C(F)(F)F)c2ccc(F)cc2)nn1, the IC50 (second compound 0.0316 µM) was > 10 µM, the IC50 (second compound 0.1 µM) was > 10 µM and the IC50 (second compound 0.316 µM) was > 10 µM. For the same molecule, the IC50 (second compound 1 µM) was > 10 µM, the IC50 (second compound 3.16 µM) was > 10 µM and the IC50 (second compound 10 µM) was > 10 µM. It also gave a viability, T/C [1] of 84.4%, a viability, T/C [2] of 99.5% and a viability, T/C [3] of 82.7%. It also gave a viability, T/C [4] of 80.8%, a viability, T/C [5] of 78.2% and a viability, T/C [6] of 73.1%. For the same molecule, the viability, T/C [7] was 101%, the viability, T/C [8] was 101% and the viability, T/C [9] was 86.8%. The viability, T/C [10] was 87.1%, the viability, T/C [11] was 84% and the viability, T/C [12] was 80.7%. The viability, T/C [13] was 95.3%, the viability, T/C [14] was 92.4% and the viability, T/C [15] was 79%. For the same molecule, the viability, T/C [16] was 73%, the viability, T/C [17] was 93.8% and the viability, T/C [18] was 75.5%. For the same molecule, the viability, T/C [19] was 104%, the viability, T/C [20] was 100% and the viability, T/C [21] was 79.5%. The viability, T/C [22] was 79.7%, the viability, T/C [23] was 86.8% and the viability, T/C [24] was 70.6%. For the same molecule, the viability, T/C [25] was 101%, the viability, T/C [26] was 86.8% and the viability, T/C [27] was 82.7%. It also gave a viability, T/C [28] of 76.7%, a viability, T/C [29] of 107% and a viability, T/C [30] of 68.6%. For the same molecule, the viability, T/C [31] was 87%, the viability, T/C [32] was 76.8% and the viability, T/C [33] was 87%. The viability, T/C [34] was 73.9%, the viability, T/C [35] was 76.3% and the viability, T/C [36] was 69%.
For `COc1ccc([C@@H](O)c2cc(-c3ncnc4cc(N5CCOCC5)ccc34)c(F)cc2Cl)nn1` + COC1C(OC(N)=O)C(O)C(Oc2ccc3c(O)c(NC(=O)c4ccc(O)c(CC=C(C)C)c4)c(=O)oc3c2C)OC1(C)C, the IC50 (second compound 0.0316 µM) was > 10 µM, the IC50 (second compound 0.1 µM) was > 10 µM and the IC50 (second compound 0.316 µM) was > 10 µM. For the same molecule, the IC50 (second compound 1 µM) was > 10 µM, the IC50 (second compound 3.16 µM) was > 10 µM and the IC50 (second compound 10 µM) was > 10 µM. It also gave a viability, T/C [1] of 114%, a viability, T/C [2] of 102% and a viability, T/C [3] of 123%. For the same molecule, the viability, T/C [4] was 96.2%, the viability, T/C [5] was 91.4% and the viability, T/C [6] was 65.3%. It also gave a viability, T/C [7] of 91.5%, a viability, T/C [8] of 123% and a viability, T/C [9] of 87%. For the same molecule, the viability, T/C [10] was 98.7%, the viability, T/C [11] was 72% and the viability, T/C [12] was 94.3%. For the same molecule, the viability, T/C [13] was 112%, the viability, T/C [14] was 102% and the viability, T/C [15] was 84.5%. It also gave a viability, T/C [16] of 89.2%, a viability, T/C [17] of 76.1% and a viability, T/C [18] of 61.1%. For the same molecule, the viability, T/C [19] was 100%, the viability, T/C [20] was 93.4% and the viability, T/C [21] was 106%. It also gave a viability, T/C [22] of 79.5%, a viability, T/C [23] of 89.8% and a viability, T/C [24] of 65.7%. For the same molecule, the viability, T/C [25] was 89.4%, the viability, T/C [26] was 118% and the viability, T/C [27] was 101%. For the same molecule, the viability, T/C [28] was 94.3%, the viability, T/C [29] was 77.5% and the viability, T/C [30] was 63.8%. It also gave a viability, T/C [31] of 101%, a viability, T/C [32] of 93.5% and a viability, T/C [33] of 107%. It also gave a viability, T/C [34] of 69.5%, a viability, T/C [35] of 76.4% and a viability, T/C [36] of 72.3%.
With `CNCc1ccc(-c2[nH]c3cc(F)cc4c3c2CCNC4=O)cc1` + COC1C(OC(N)=O)C(O)C(Oc2ccc3c(O)c(NC(=O)c4ccc(O)c(CC=C(C)C)c4)c(=O)oc3c2C)OC1(C)C the IC50 (second compound 0.0316 µM) was > 10 µM, the IC50 (second compound 0.1 µM) was > 10 µM and the IC50 (second compound 0.316 µM) was > 10 µM. The IC50 (second compound 1 µM) was > 10 µM, the IC50 (second compound 3.16 µM) was > 10 µM and the IC50 (second compound 10 µM) was > 10 µM. It also gave a viability, T/C [1] of 85.1%, a viability, T/C [2] of 90% and a viability, T/C [3] of 93.8%. It also gave a viability, T/C [4] of 89.9%, a viability, T/C [5] of 87.1% and a viability, T/C [6] of 69.5%. The viability, T/C [7] was 103%, the viability, T/C [8] was 87.7% and the viability, T/C [9] was 88.9%. For the same molecule, the viability, T/C [10] was 117%, the viability, T/C [11] was 99.2% and the viability, T/C [12] was 106%. The viability, T/C [13] was 88.5%, the viability, T/C [14] was 96.9% and the viability, T/C [15] was 102%. For the same molecule, the viability, T/C [16] was 111%, the viability, T/C [17] was 103% and the viability, T/C [18] was 92.3%. The viability, T/C [19] was 97.2%, the viability, T/C [20] was 97.2% and the viability, T/C [21] was 67.9%. For the same molecule, the viability, T/C [22] was 83.5%, the viability, T/C [23] was 117% and the viability, T/C [24] was 103%. The viability, T/C [25] was 82.5%, the viability, T/C [26] was 102% and the viability, T/C [27] was 90.3%. For the same molecule, the viability, T/C [28] was 87.2%, the viability, T/C [29] was 104% and the viability, T/C [30] was 88.8%. It also gave a viability, T/C [31] of 66.3%, a viability, T/C [32] of 92.3% and a viability, T/C [33] of 84.3%. The viability, T/C [34] was 74.9%, the viability, T/C [35] was 95.3% and the viability, T/C [36] was 90.5%.
